From PMC4891693, “Discovery of prenylated flavonoids with dual activity against influenza virus and Streptococcus pneumoniae” (Scientific Reports, 2016)
Converted amounts (≈) assume the structure as drawn. “And” between values parts separate entries of the source, which are not always exact repeats. Equal entries are not always repeated. “Also recorded” adds a separate entry of the source. Where two headings read alike, the source gives them in different places.

What was measured:
[1] = test system: IAV Jena/8178/2009 (8178/09); test: microbe, parasite or virus in culture; format: cell-based, Influenza A virus; settings: Influenza A virus, MDCK, 48 h; read-out: IC50 of CPE IAV 8178/09
[2] = biological target: influenza virus A/WSN/33 NA (Influenza A virus, UniProt P03470); test: biochemical
Chain of influenza virus A/WSN/33 NA (P03470 whole entry, looked up): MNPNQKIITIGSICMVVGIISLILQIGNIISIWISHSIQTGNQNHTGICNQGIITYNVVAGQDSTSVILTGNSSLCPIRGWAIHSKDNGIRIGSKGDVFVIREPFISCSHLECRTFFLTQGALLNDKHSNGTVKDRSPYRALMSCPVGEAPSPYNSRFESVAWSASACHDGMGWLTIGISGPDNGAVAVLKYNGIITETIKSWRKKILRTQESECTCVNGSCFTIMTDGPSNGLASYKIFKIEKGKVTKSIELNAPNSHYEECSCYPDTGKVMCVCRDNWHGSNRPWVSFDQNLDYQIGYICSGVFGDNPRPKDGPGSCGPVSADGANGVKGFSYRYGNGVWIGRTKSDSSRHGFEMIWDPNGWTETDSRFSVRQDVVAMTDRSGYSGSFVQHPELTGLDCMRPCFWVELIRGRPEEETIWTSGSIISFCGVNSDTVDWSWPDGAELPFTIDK

influenza virus A/WSN/33 = test: microbe, parasite or virus in culture; format: cell-based; settings: WSN, MDCK, read-out: IC50 of CPE assay (A/WSN/33)
human erythrocytes [3] = test system: human erythrocytes
human erythrocytes [4] = test system: human erythrocytes; remark: listed apart in the source
in vitro [5] = settings: dog
in vitro [6] = settings: human
human erythrocytes [7] = test: Interference with hemagglutination in the viral HA assay
[8] = test system: NA of S. pneumoniae DSM20566 (precipitated bacterial proteins); test: Hemagglutination (HA)-based NA inhibition assay, bacterial; format: biochemical, Streptococcus pneumoniae; settings: pure compounds; total protein of DSM20566; human erythrocytes; highest tested 100 μM
From the text: Inhibition of pneumococcal NAs circumvents hemagglutination.

[9] = Cytotoxicity in MDCK cells; settings: dog
[10] = Cytotoxicity in A549 cells; settings: human
[11] = test system: IAV 8178/09 in A549 cells; format: cell-based, Influenza A virus; settings: 50 µM
[12] = test system: S. pneumoniae DSM20566 biofilm; test: Scanning electron microscopy of pneumococcal biofilm on glass slides; format: cell-based, Streptococcus pneumoniae; settings: 10 μM, 7 days
[13] = pure compounds, human erythrocytes, 2 h at 4 °C
[14] = treatment from 3 h after inoculation

| SMILES | IC50 [1] | IC50 [2] | IC50 (influenza virus A/WSN/33) | sample concentrations provoking induction of erythrocyte lysis in viral HA assay (human erythrocytes [3]) | sample concentrations provoking induction of erythrocyte lysis in bacterial HA assay (human erythrocytes [4]) | CC50 at 72 h (in vitro [5]) | CC50 at 72 h (in vitro [6]) | sample concentrations provoking prevention of virus-induced hemagglutination in viral HA assay (human erythrocytes [7]) | MIC in HA assay against S. pneumoniae DSM20566 [8] | further results |
| --- | --- | --- | --- | --- | --- | --- | --- | --- | --- | --- |
| COc1c(O)cc2c(c1O)C(=O)CC(c1ccccc1)O2 (centres unmarked) [Compound 8, 2,3-dihydro-5,7-dihydroxy-6-methoxy-2-phenyl-4H-1-benzopyran-4-one] | > 100 µM | > 100 µM | > 100 µM | no | no | > 100 µM | > 100 µM | – | – | sample concentrations provoking prevention of virus-induced hemagglutination in viral HA assay (human erythrocytes [7]; [13]): no |
| CC(C)=CCc1cc(C2CC(=O)c3ccc(O)cc3O2)ccc1O (racemic) [Compound 18, (±)-abyssinone II] | 25.9 ± 3.67 µM | > 100 µM | 11.4 ± 3 µM | no | no | 59.2 ± 15 µM | > 100 µM | no | – | – |
| O=c1cc(-c2ccc(O)c(O)c2)oc2cc(O)cc(O)c12 [Compound 15, luteolin] | – | > 100 µM | – | – | – | – | – | no | 23.0 ± 11.8 µM (≈ 6.58 µg/mL) | CC50 at 72 h [9]: 23 ± 0.18 µM; CC50 at 72 h [10]: > 100 µM |
| COc1c(CC=C(C)C)cc([C@@H]2CC(=O)c3c(O)cc(O)cc3O2)cc1CC=C(C)C [Compound 27, abyssinone-V 4'-methyl ether] | – | 33.1 ± 11.7 µM | – | no | – | 2.29 ± 0.1 µM | > 100 µM | 3.16 to 100 µM | 7.72 ± 3.53 µM (≈ 3.26 µg/mL) | viral yield in A549 cells in the presence of NanA of DSM20566 [11]: 7.4 ± 1.2%; virus yield in A549 cells in the absence of NanA [11]: 3.2 ± 1.4%; biofilm formation by scanning electron microscopy [12, 14]: completely prevented biofilm formation; also recorded: strong effect; biofilm formation by scanning electron microscopy ([12]; treatment from 6 h after inoculation): no biofilm was formed; biofilm formation by scanning electron microscopy ([12]; treatment from 9 h after inoculation): affected biofilm formation weakly; biofilm formation by scanning electron microscopy ([12]; treatment from 48 h after inoculation): had no effect; sample concentrations provoking induction of erythrocyte lysis in bacterial HA assay (human erythrocytes [4]; human): 31.6 to 100 µM |
| O=c1c(O)c(-c2ccc(O)cc2O)oc2cc(O)cc(O)c12 [Compound 16, morin] | 70.1 ± 9.83 µM | 62 ± 8.03 µM | > 100 µM | no | no | > 100 µM | > 100 µM | no | 23.0 ± 11.8 µM (≈ 6.95 µg/mL) | – |
| CC(C)=CCc1c(O)cc(O)c2c1O[C@@H](c1ccc(O)cc1)[C@H](O)C2=O (relative stereo) [Compound 23, (2R,3R)-rel-4H-2,3-dihydro-3,5,7-trihydroxy-2-(4-hydroxyphenyl)-8-(3-methyl-2-buten-1-yl)-1-benzopyran-4-one] | 24.7 ± 4.55 µM | 27 ± 3.24 µM | – | no | no | 69 ± 3.56 µM | > 100 µM | no | 31.6 ± 0.00 µM (≈ 11.3 µg/mL) | – |
| CCC(CC)O[C@@H]1C=C(C(=O)O)C[C@H](N)[C@H]1NC(C)=O [Oseltamivir carboxylate GS4071, reference compound] | – | – | – | – | – | – | – | – | 2.08 ± 1.25 µM (≈ 0.591 µg/mL) | biofilm formation by scanning electron microscopy [12, 14]: did not impair biofilm formation |
| COc1cc([C@H]2Oc3cc([C@H]4Oc5cc(O)cc(O)c5C(=O)[C@@H]4O)ccc3O[C@@H]2CO)ccc1O (racemic) [Compound 17, (±)-silybin] | > 100 µM | 9.18 ± 1.5 µM | > 100 µM | no | no | > 100 µM | > 100 µM | – | – | sample concentrations provoking prevention of virus-induced hemagglutination in viral HA assay (human erythrocytes [7]; [13]): no |
| O=C1CC(c2ccc(O)c(O)c2)Oc2cc(O)cc(O)c21 (racemic) [Compound 11, (±)-eriodictyol] | 78.3 ± 5.72 µM | > 100 µM | 68.4 ± 12.9 µM | no | no | – | – | no | 45.3 ± 30.6 µM (≈ 13.1 µg/mL) | CC50 at 72 h [9]: > 100 µM; CC50 at 72 h [10]: > 100 µM |
| CC(C)=CC[C@]12Oc3cc(O)c([C@H]4C=C(C)C[C@H](c5ccc(O)cc5O)[C@H]4C(=O)c4ccc(O)cc4O)c(O)c3C(=O)[C@@]1(O)Oc1cc(O)ccc12 [Compound 2, sanggenon C] | 8.3 ± 0.7 µM | 9.18 ± 1.5 µM | – | – | – | – | – | 3.1 to 100 µM | – | sample concentrations provoking induction of erythrocyte lysis in viral HA assay (human erythrocytes [3]; human): 10 to 100 µM; sample concentrations provoking induction of erythrocyte lysis in bacterial HA assay (human erythrocytes [4]; human): 31.6 to 100 µM; CC50 (in vitro [5]): 51.7 ± 12.2 µM; CC50 (in vitro [6]): 32.6 ± 9.07 µM |
| O=c1cc(-c2ccc(O)c(O)c2O)oc2cc(O)cc(O)c12 [Compound 14, 2',3',4',5,7-pentahydroxyflavone] | > 100 µM | > 100 µM | > 100 µM | no | no | > 100 µM | > 100 µM | no | 72.6 ± 37.5 µM (≈ 21.9 µg/mL) | – |
| O=C1CC(c2ccc(O)cc2O)Oc2cc(O)cc(O)c21 (centres unmarked) [Compound 12, 2',4',5,7-tetrahydroxyflavanone] | > 100 µM | 77.7 ± 5.56 µM | 81.3 ± 10.4 µM | no | no | > 100 µM | > 100 µM | no | 72.6 ± 37.5 µM (≈ 20.9 µg/mL) | – |
| COc1ccc(C2CC(=O)c3c(O)cc(O)cc3O2)cc1O (racemic) [Compound 10, (±)-hesperetin] | > 100 µM | > 100 µM | > 100 µM | no | no | – | – | no | – | CC50 (in vitro [5]): > 100 µM; CC50 (in vitro [6]): > 100 µM |
| CC(C)=CCC/C(C)=C/Cc1c(O)ccc([C@@H]2CC(=O)c3c(O)cc(O)cc3O2)c1O [Compound 5, sanggenol A] | – | 65.5 ± 9.29 µM | 35.4 ± 14.6 µM | – | – | 42.1 ± 4.45 µM | > 100 µM | 100 or no | 31.6 µM and 31.6 ± 0.00 µM | viral yield in A549 cells in the presence of NanA of DSM20566 [11]: 31.8 ± 4.5%; virus yield in A549 cells in the absence of NanA [11]: 5.1 ± 1.8%; sample concentrations provoking induction of erythrocyte lysis in viral HA assay (human erythrocytes [3]; human): 100 or no; sample concentrations provoking induction of erythrocyte lysis in bacterial HA assay (human erythrocytes [4]; human): 100 µM |
